This series in a line: in vitro. To be noted: human.

Molecules are shown by their SMILES.

As usually defined, the half-life is the time in which the quantity being followed falls by half. In turn, `N[C@@H](CC(=O)N1CCC[C@H]1COCC1CC1)Cc1cc(F)c(F)cc1F` gave a half-life at 0.75 h, 3 µM (microsomes) of 30 min.

`N[C@@H](CC(=O)N1CCC[C@H]1CNC(=O)CC(F)(F)F)Cc1cc(F)c(F)cc1F`: the half-life at 0.75 h, 3 µM (liver microsomes) was above 120 min.

For the setting “liver microsomes”, `N[C@@H](CC(=O)N1CCC[C@H]1CNC(=O)C1CCCC1)Cc1cc(F)c(F)cc1F` gave a half-life at 0.75 h, 3 µM of 71 min.

On to `N[C@@H](CC(=O)N1CCC[C@H]1CNC(=O)C1CCC1)Cc1cc(F)c(F)cc1F`, for which the half-life at 0.75 h, 3 µM (liver microsomes) was 38 min.

The record behind these values is ChEMBL document CHEMBL1153064, “From lead to preclinical candidate: optimization of beta-homophenylalanine based inhibitors of dipeptidyl peptidase IV” (Bioorg Med Chem Lett, 2009).
